In US7517526B2, “Enhancement of antibody-cytokine fusion protein mediated immune responses by combined treatment with immunocytokine uptake enhancing agents” (Merck Patent GmbH, priority 2000, dated 2009):
Converted amounts (≈) assume the structure as drawn. Like-named read-outs stand apart in the source and are kept apart here.

Experiments:
LLC/KSA tumors = type: in vivo
Description: (§1) For tumor growth studies either LLC/KSA or CT26/KSA tumors were implanted subcutaneously on the backs of mice. For LLC/KSA studies, tumors were transplanted from several stock tumors that had been injected with a single cell suspension of 1×10^6 cells in 100 ul of PBS. After about two weeks, tumors were aseptically collected, passed through a sieve fitted with a 150 μm screen. Cells were then passed through a syringe and 23 gauge needle tow or three times, washed twice, and resuspended in PBS. A single cell suspension of 1×10^6 LLC/KSA cells in 100 ul of PBS was injected subcutaneously using a 30 ½ gauge needle on the backs of mice. For CT26/KSA studies, cells growing exponentially in culture were injected as a single cell suspension of 1×10^6 cells in 100 μl of PBS. After tumors had become established, about 2 weeks after implantation, dosing was initiated on Day 0. Tumors were measured with calipers in three dimensions twice weekly. Tumor volumes were calculated using the equation: Volume=½×4/3π(L/2×W/2×H) where L=length, W=width and H=height of the tumor. Animals were weighed and general health was monitored during the course of the study. When tumors became necrotic or if animals became moribund, the animals were euthanized by CO2 asphyxiation.
Data are presented in graphic form. Graphs depict individual or average tumor volumes (+/− SEM) during and after dosing. Data are also expressed as the percent of control of average tumor volumes from treated mice relative to vehicle treated mice. Student's t test was performed on the individual tumor volumes to determine significant differences.

[1] = cited from earlier work
P-glycoprotein = P-glycoprotein (Homo sapiens, UniProt P08183); conditions: cited from earlier work
[2] = tested on: multidrug resistant tumors; conditions: cited from earlier work
[3] = tested on: lung carcinoma subcutaneous tumors; assay: Tumor growth assay, established lung carcinoma subcutaneous tumors; type: in vivo, mouse; conditions: FIG. 9C; cyclophosphamide single dose 80 mg/kg; huKS-IL2 20 μg x 5 daily doses, 3 days after cyclophosphamide in combination; Day 20
[4] = tested on: breast carcinoma subcutaneous tumors; assay: Tumor growth assay, established breast carcinoma subcutaneous tumors; type: in vivo, mouse; conditions: FIG. 9B; cyclophosphamide single dose 80 mg/kg; huKS-IL2 30 μg x 5 daily doses, 3 days after cyclophosphamide in combination; Day 25
[5] = tested on: 4T1 breast carcinoma cells; conditions: FIG. 9; cyclophosphamide single dose 15 or 40 mg/kg; combination: huKS-IL2 15 ug/day for 5 days from three days later
Description: 4T1 breast carcinoma cells were injected intravenously into immuno-competent mice to establish pulmonary metastases 3 days before treatment.

[6] = tested on: CT26/KSA colon carcinoma skin tumors; assay: CT26/KSA established skin tumor growth assay; type: in vivo, mouse; conditions: paclitaxel single dose 75 mg/kg
Description: as §1
Data are presented in graphic form. Graphs depict individual or average tumor volumes (+/− SEM) during and after dosing. […]

LLC/KSA cells = assay: Cytotoxicity assay (MTS, verified by crystal violet); type: cell-based; conditions: Mus musculus, 144 h; read-out: Paclitaxel IC50
Description: (§2) The cell lines engineered for use in animal models (example 1) were tested for their sensitivity to taxane-induced cytotoxicity in cell culture in the presence or absence of the an IL-2 based immunocytokine consisting of the humanized form of the KS-1/4 antibody fused at the carboxyl terminus of the H chain to human IL-2 (huKS-huγ1-huIL2, hereafter abbreviated, KS-IL2). Cells were seeded at 1000 cell/well in 96 well flat-bottom plates and incubated for 24 hours at 37° C., 7% CO2. Paclitaxel, at 2-fold dilutions from 200 ng/ml to 3.125 ng/ml, KS-IL2, at 200 ng/ml and IL-2, at 33.3 ng/ml (the equivalent amount of IL-2 in KS-IL2) were added in duplicate to the cell culture plates and incubated for 6 days at 37° C., 7% CO2. The MTS calorimetric assay (Promega), a measure of cell viability based on the cellular conversion of a tetrazolium salt, was performed directly in the 96 well plates. After plates were read and recorded, viable adherent cells were stained with Crystal violet (Sigma, St. Louis, Mo). Crystal violet stained plates were used to verify MTS assay results. […] The IC50 is the concentration of drug that produced cytotoxicity at a level of 50% of control.
(§3) A cytotoxicity assay was performed with paclitaxel (3 to 200 ng/ml) alone or combined with KS-IL2 (200 ng/ml) or IL-2 (33.3 ng/ml, the equivalent amount of IL-2 in KS-IL2) against CT26/KSA, LLC/KSA and 4T1/KSA cells.

CT26/KSA cells = assay: as above; type: cell-based; conditions: Mus musculus, CT26, 144 h; read-out: Paclitaxel IC50
Description: as §2, §3

4T1/KSA cells = assay: as above; type: cell-based; conditions: Mus musculus, 144 h; read-out: Paclitaxel IC50
Description: as §2, §3

[7] = tested on: 4T1/KSA breast carcinoma cells; assay: Experimental lung metastasis model with 4T1/KSA cells; type: in vivo, mouse; conditions: for reduction of average lung weights: FIG. 4, combination with KS-IL2 15 μg/dose x 3 days given 4 hr after paclitaxel
Description: For experimental lung metastases studies, a single cell suspension of 2.5×10^5 4T1/KSA cells in 100 μl of PBS was slowly injected using a 27½ gauge needle into the lateral tail vein on Day 0. About 3 weeks-after inoculation animals were sacrificed; their lungs were removed and weighed. […] Data are presented in graphic form. Graphs depict average tumor burdens (+/− SEM) at time of sacrifice. Tumor burden was determined by subtracting the weight of a normal lung from the weight of the experimental lungs.
For this experiment we used an experimental lung metastasis model induced with 4T1/KSA breast carcinoma cells. The doses of the drugs were selected to be sub-optimal by themselves so that any potential additive or synergistic activity could be observed.

[8] = tested on: CT26/KSA liver metastases; conditions: FIG. 6, combination: KS-IL2 7 ug for 5 days from one day later
Description: For experimental hepatic metastases studies, mice were anesthetized using 80 mg/kg ketamine HCL (Fort Dodge Animal Health, Fort Dodge, Iowa) and 5 mg/kg xylazine (Bayer, Shawnee Mission, Kans.). A single cell suspension of 1×10^5 CT26/KSA cells in 100 μl of DMEM containing 25 mM HEPES (GIBCO) was injected using a 27½ gauge needle beneath the splenic capsule over a period of 60 seconds on Day 0. After another 2 minutes the splenic vessels were cauterized with a cautery unit (Roboz, Rockville, Md.) and the spleen removed. Animals were sutured using autoclips. Three weeks after inoculation the animals were sacrificed; their livers were removed and weighed. The livers were then fixed and stained in Bouin's solution (Sigma, St. Louis Mo.).
Graphs depict average tumor burdens (+/− SEM) at the time of sacrifice. Tumor burdens were determined by subtracting the weight of a normal liver from the weight of the experimental livers. Data are also expressed as the percent of control of the average tumor burden from treated mice relative to vehicle treated mice. Student's t test was performed on the individual tumor burdens to determine significant differences.
A second experiment was performed using the CT26/KSA model, this time testing the effect of combined therapy on established liver metastases and again using the 24 hr delay between paclitaxel administration and KS-IL2 treatment. We also compared the dose response of paclitaxel in the combination therapy. Mice were injected with 25, 50, or 75 mg/kg of paclitaxel on Day 5 after metastasis induction, alone or followed one day later with KS-IL2 (7 ug) for 5 days.

[9] = comparative statement, Polizzi et al. 1999
[10] = FIG. 3, paclitaxel multiple doses 50 mg/kg every other day, combination: KS-IL2 one week following paclitaxel

Sequence of P-glycoprotein (P08183 whole entry): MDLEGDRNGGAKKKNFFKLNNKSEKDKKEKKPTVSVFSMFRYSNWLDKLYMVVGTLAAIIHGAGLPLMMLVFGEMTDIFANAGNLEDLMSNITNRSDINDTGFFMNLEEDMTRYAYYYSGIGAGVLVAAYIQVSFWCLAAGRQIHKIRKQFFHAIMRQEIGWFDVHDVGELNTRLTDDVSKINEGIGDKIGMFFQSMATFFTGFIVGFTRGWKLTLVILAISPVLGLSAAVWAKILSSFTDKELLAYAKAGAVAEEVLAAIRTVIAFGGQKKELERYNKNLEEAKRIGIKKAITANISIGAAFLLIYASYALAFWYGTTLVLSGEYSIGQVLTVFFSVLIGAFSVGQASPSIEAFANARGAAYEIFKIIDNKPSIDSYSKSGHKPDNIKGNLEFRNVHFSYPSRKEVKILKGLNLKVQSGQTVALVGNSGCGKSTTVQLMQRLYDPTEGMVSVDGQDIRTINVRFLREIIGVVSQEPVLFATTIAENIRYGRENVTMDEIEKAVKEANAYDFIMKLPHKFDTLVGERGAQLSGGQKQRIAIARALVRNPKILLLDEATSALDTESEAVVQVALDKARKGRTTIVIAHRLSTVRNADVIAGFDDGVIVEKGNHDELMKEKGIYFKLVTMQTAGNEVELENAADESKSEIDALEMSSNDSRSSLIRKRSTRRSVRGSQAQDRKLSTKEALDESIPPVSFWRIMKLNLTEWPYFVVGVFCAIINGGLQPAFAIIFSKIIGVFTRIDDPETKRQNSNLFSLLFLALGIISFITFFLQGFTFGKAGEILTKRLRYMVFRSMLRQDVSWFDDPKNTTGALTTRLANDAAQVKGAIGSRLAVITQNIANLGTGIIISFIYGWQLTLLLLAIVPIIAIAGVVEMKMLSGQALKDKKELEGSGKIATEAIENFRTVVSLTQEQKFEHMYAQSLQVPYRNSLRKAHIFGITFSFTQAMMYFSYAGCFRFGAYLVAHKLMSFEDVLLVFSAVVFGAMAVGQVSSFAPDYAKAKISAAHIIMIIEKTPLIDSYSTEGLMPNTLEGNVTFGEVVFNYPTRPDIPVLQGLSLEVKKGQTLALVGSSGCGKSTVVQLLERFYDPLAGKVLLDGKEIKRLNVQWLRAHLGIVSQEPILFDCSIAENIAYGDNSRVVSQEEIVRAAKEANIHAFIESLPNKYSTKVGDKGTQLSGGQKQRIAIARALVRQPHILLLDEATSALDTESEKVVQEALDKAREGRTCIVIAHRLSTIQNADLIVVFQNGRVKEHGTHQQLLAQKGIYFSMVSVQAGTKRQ

N.N.O=C([O-])C1(C(=O)[O-])CCC1.[Pt+2] [Carboplatin]
effect on tumor growth / average tumor volume on Day 20 (LLC/KSA tumors; FIG. 10, Carboplatin 75 mg/kg Day 0, KS-IL2 20 ug per day for 5 days, three days after Carboplatin in combination): modest decrease

CC(=O)O[C@H]1C(=O)[C@@]2(C)[C@H]([C@H](OC(=O)c3ccccc3)[C@]34OC(=O)O[C@H]3[C@H](OC(=O)[C@H](O)[C@H](CC(C)C)NC(=O)OC(C)(C)C)C(C)=C1C4(C)C)[C@]1(OC(C)=O)CO[C@@H]1C[C@@H]2O [IDN5109]
neurotoxic side effects [1, 9]: less neurotoxic side effects | tolerated dose [1, 9]: higher tolerated dose | oral bioavailability ([1]; in vivo, po): orally bioavailable | substrate for P-glycoprotein (P-glycoprotein): poor substrate | activity against multidrug resistant tumors [2]: generally more active

O=P1(N(CCCl)CCCl)NCCCO1 (centres unmarked) [cyclophosphamide]
reduction of average tumor volumes [3]: 27% | reduction of average tumor volumes [4]: 69% | lung metastasis tumor burden [5]: modest reduction

CC(=O)O[C@H]1C(=O)[C@@]2(C)[C@H]([C@H](OC(=O)c3ccccc3)[C@]3(O)C[C@H](OC(=O)[C@H](O)[C@@H](NC(=O)c4ccccc4)c4ccccc4)C(C)=C1C3(C)C)[C@]1(OC(C)=O)CO[C@@H]1C[C@@H]2O [paclitaxel]
effect on tumor growth ([6]; Example 9, huKS-muγ2a-muIL12 5 μg per day for 5 days, starting 24 hr after paclitaxel in combination): very little effect | effect on tumor growth, alone ([6]; FIG. 5): no effect | IC50 (LLC/KSA cells): 0.006 µg/mL (≈ 0.00703 µM) | IC50 (CT26/KSA cells): 0.027 µg/mL (≈ 0.0316 µM) | effect on tumor growth, agent given alone (LLC/KSA tumors; FIG. 2, paclitaxel single dose 80 mg/kg, KS-IL2 20 μg i.v. Days 0-4): No effect | average tumor volume (LLC/KSA tumors; [10]): 63 % of control | tumor growth delay (TGD) (LLC/KSA tumors; [10]): 4 days | IC50 (4T1/KSA cells): 0.016 µg/mL (≈ 0.0187 µM) | weight loss, comparison of groups ([7]; 25 mg/kg of paclitaxel given 3 times every other day): greatest weight loss | reduction of average lung weights ([7]; paclitaxel multiple doses 25 mg/kg x 3 days): 49% | reduction of average lung weights ([7]; paclitaxel single dose 75 mg/kg): 43% | tumor burden ([8]; paclitaxel 25 mg/kg on Day 5): 49 % of control | tumor burden ([8]; paclitaxel 50 mg/kg on Day 5): 23 % of control | tumor burden ([8]; paclitaxel 75 mg/kg on Day 5): 10 % of control
